The conditions of data set [1]: additive used in the salt screen, cited from earlier work.
Data set [2] in a line: pKa of basic sites / additives. Type of data set: physicochemical. The following applies: two basic sites for salt formation. An excerpt: Fifty-three counterions and stoichiometric combinations were selected. Table 1 provides a summary of the additives, pKa values, method of dosing and equivalents dosed for each additive.

Where two headings read alike, the source gives them in different places.

In general, pKa refers to the negative logarithm of the acid dissociation constant. As for `CC1(C)C2CCC1(CS(=O)(=O)O)C(=O)C2` (stereo not shown) [Camphor-10-sulfonic acid], the pKa in data set [1] (first pKa value) is −2.2. Take `CC1(C(=O)O)CCC(C(=O)O)C1(C)C` (stereo not shown) [Camphoric acid]: the pKa in data set [1] (first pKa value) is reported as 4.7; in data set [1] (second pKa value), 5.8. Take `O=C(O)[C@@H](O)c1ccccc1` [L-Mandelic acid]: in data set [1] (first pKa value), the pKa was 3.4. Regarding `Cc1cnc(Nc2ccc(OCCN3CCCC3)cc2)nc1Nc1cccc(S(=O)(=O)NC(C)(C)C)c1` [Compound 1, N-tert-butyl-3-[(5-methyl-2-{[4-(2-pyrrolidin-1-ylethoxy)phenyl]amino}pyrimidin-4-yl)amino]benzenesulfonamide], the pKa in data set [2] was found to be 6.4; in data set [2] (read-out: pKa), 9.3. Regarding `O=C(O)C(O)c1ccccc1` (racemic) [DL-Mandelic acid], in data set [1] (first pKa value), the pKa was 3.4.

(Values after patent US12559463B2, “Crystalline forms of a JAK2 inhibitor” (Impact Biomedicines, Inc., priority 2019, dated 2026).)
